This data set relates to primary cortical neurons. Briefly: ELISA of Aβ levels in the treatment media. It is filed as cell-based, mouse. As to conditions: 4 hours incubation, 500 nM, neurobasal FCS- PS- media, versus amount before incubation, n = 9, N = 3. On the procedure:
Primary cortical neurons (DIV14) were treated with 500 nM of monomeric/unaggregated Aβ variants ([…]β and p-[…]β) in neurobasal, FCS^- PS^- media. SH-SY5Y cells seeded on D1, were treated with Aβ variants (1 μM) on D3 in DMEM/F-12 media without serum and antibiotics. Control treatment included treatment with equal volume of 10 mM NaOH solution used for preparing the Aβ stock solutions, in respective cell culture medium. SH-SY5Y cells, after 16 h of transient expression of the reporter constructs, were treated with different Aβ variants, autophagy modulator substrates and respective controls in DMEM/F-12, FCS^- PS^- media for the mentioned time points. […] Cells were either collected by scraping using a cell-scraper or fixed with 4% PFA-PBS for 15 min at RT, for further immunocytochemistry experiments. Collected treatment media was centrifuged at 1000 g for 5 min, pellet discarded and supernatant frozen at -20°C until further usage. Plates (ThermoFisher Scientific, 44-2404-21) were coated with either […]6) or anti-pAβ antibodies ([…]11 and […]) as capture antibody at RT for 2 h and blocked with 1 mg/ml BSA solution in PBS. […] Multiple readings were recorded for a single well and averaged. In each experiment, each sample was analyzed in technical duplicate/triplicate wells as indicated and average values from an independent experiment are presented (Figures 1E, 3G, SA-D and Table S2).
On the technique in general: ELISA stands for enzyme-linked immunosorbent assay.

As to “non-phosphorylated amyloid-β [npAβ, reference compound]”, the “Levels of Aβ in the treatment media after incubation with primary neurons” value was “significantly decreased”.

Source of the values: publication PMC10761119, “Phosphorylation-state dependent intraneuronal sorting of Aβ differentially impairs autophagy and the endo-lysosomal system” (Autophagy, 2023).
